Results from US6534524B1, “Indazole compounds and pharmaceutical compositions for inhibiting protein kinases, and methods for their use” (Agouron Pharmaceuticals, Inc., priority 1999, dated 2003).
Read-outs that look alike come from different tables or passages of the source.

Tested on: human umbilical vein endothelial cells (HUVEC)
Test: HUVEC proliferation assay (VEGF-stimulated, MTT)
Type: cell-based
Conditions: for % inhibition: Library III, HUVEC proliferation, nominal concentration of 0.5 nM, crude reaction mixtures; for IC50: read-out: HUVEC + albumin IC50

O=C(Nc1cc(O)c2ccccc2n1)c1ccccc1Sc1ccc2c(/C=C/c3ccccn3)n[nH]c2c1
% inhibition: 4%

O=C(Nc1ccccc1F)c1ccccc1Sc1ccc2c(/C=C/c3ccccn3)n[nH]c2c1
% inhibition: 17%

C[n+]1ccc(NC(=O)c2ccccc2Sc2ccc3c(/C=C/c4ccccn4)n[nH]c3c2)cc1
% inhibition: 0%

N#Cc1nc(NC(=O)c2ccccc2Sc2ccc3c(/C=C/c4ccccn4)n[nH]c3c2)[nH]c1C#N
% inhibition: −28%

N#Cc1[nH]cnc1NC(=O)c1ccccc1Sc1ccc2c(/C=C/c3ccccn3)n[nH]c2c1
% inhibition: −13%

CC(C)(C)c1cc(NC(=O)c2ccccc2Sc2ccc3c(/C=C/c4ccccn4)n[nH]c3c2)n[nH]1
% inhibition: −21%

N/C(=N\O)c1[nH]cnc1NC(=O)c1ccccc1Sc1ccc2c(/C=C/c3ccccn3)n[nH]c2c1
% inhibition: −15%

O=C(Nc1cc(Cl)nc(Cl)c1)c1ccccc1Sc1ccc2c(/C=C/c3ccccn3)n[nH]c2c1
% inhibition: 0%

CC(CO)(CO)NC(=O)c1ccccc1Sc1ccc2c(/C=C/c3ccccn3)n[nH]c2c1
% inhibition: −18%

COC(=O)c1ccc(C)c(NC(=O)c2ccccc2Sc2ccc3c(/C=C/c4ccccn4)n[nH]c3c2)c1
% inhibition: −9%

O=C(NCc1ccc2c(c1)CCO2)c1ccccc1Sc1ccc2c(/C=C/c3ccccn3)n[nH]c2c1
% inhibition: 14%

CSc1ccccc1NC(=O)c1ccccc1Sc1ccc2c(/C=C/c3ccccn3)n[nH]c2c1
% inhibition: −10%

CSc1ccc(NC(=O)c2ccccc2Sc2ccc3c(/C=C/c4ccccn4)n[nH]c3c2)cc1
% inhibition: −7%

O=C(Nc1ncccc1O)c1ccccc1Sc1ccc2c(/C=C/c3ccccn3)n[nH]c2c1
% inhibition: 4%

COc1cccc(NC(=O)c2ccccc2Sc2ccc3c(/C=C/c4ccccn4)n[nH]c3c2)c1
% inhibition: 11%

Cc1cc(NC(=O)c2ccccc2Sc2ccc3c(/C=C/c4ccccn4)n[nH]c3c2)n[nH]1
% inhibition: 11%

CSc1cccc(NC(=O)c2ccccc2Sc2ccc3c(/C=C/c4ccccn4)n[nH]c3c2)c1
% inhibition: 8%

CC(C)(C)NC(=O)c1ccccc1Sc1ccc2c(/C=C/c3ccccn3)n[nH]c2c1
% inhibition: 23%

O=C(NCCc1cccc(Cl)c1)c1ccccc1Sc1ccc2c(/C=C/c3ccccn3)n[nH]c2c1
% inhibition: 0%

O=C(NCc1ccc(F)cc1)c1ccccc1Sc1ccc2c(/C=C/c3ccccn3)n[nH]c2c1
% inhibition: 57%

O=C(NCc1cccc(Cl)c1)c1ccccc1Sc1ccc2c(/C=C/c3ccccn3)n[nH]c2c1
% inhibition: 24%

6-(3-Benzamidobenzoyl)-3-E-[N-(4H-1,2,4-triazol-4-yl)iminomethyl]-1H-indazole [Example 42(e)]
IC50 (+ albumin): 95 nM

NC(=O)c1ccccc1Sc1ccc2c(/C=C/c3ccccn3)n[nH]c2c1 [Example 35(d), 6-(2-Carbamoylphenylsulfanyl)-3-E-[2-(pyridin-2-yl)ethenyl]-1H-indazole]
IC50 (Homo sapiens, HUVEC, + albumin): > 100 nM

CNCCNC(=O)c1ccccc1Sc1ccc2c(/C=C/c3ccccn3)n[nH]c2c1 [Example 35(gg), 6-[2-(2-(Methylamino)ethylcarbamoyl)phenylsulfanyl]-3-E-[2-(pyridin-2-yl)ethenyl]-1H-indazole]
IC50 (Homo sapiens, HUVEC, + albumin): > 100 nM

O=C(N/N=C/c1ccccn1)c1ccccc1Sc1ccc2c(/C=C/c3ccccn3)n[nH]c2c1 [Example 36(b)]
IC50 (Homo sapiens, HUVEC, + albumin): > 30 nM

O=C(N/N=C/C(F)(F)F)c1ccccc1Sc1ccc2c(/C=C/c3ccccn3)n[nH]c2c1 [Example 36(c)]
IC50 (Homo sapiens, HUVEC, + albumin): > 30 nM

CNC(=O)c1cccc(F)c1Sc1ccc2c(/C=C/c3ccccn3)n[nH]c2c1 [Example 37(d), 6-[6-Fluoro-2-(methylcarbamoyl)phenylsulfanyl]-3-E-[2-(pyridin-2-yl)ethenyl]-1H-indazole]
IC50 (Homo sapiens, HUVEC, + albumin): > 100 nM

O=C(Nc1cccc(C(=O)c2ccc3c(/C=C/c4ccccn4)n[nH]c3c2)c1)Oc1ccccc1 [Example 41(cc), 6-[3-(Phenoxyamindo)benzoyl]-3-E-[2-(pyridin-2-yl)ethenyl]-1H-indazole]
IC50 (Homo sapiens, HUVEC): > 100 nM

CC(=O)Nc1cc(C(=O)c2ccc3c(/C=C/c4ccccn4)n[nH]c3c2)c(C)cc1C [Example 41(nn), 6-(5-Acetamido-2,4-dimethylbenzoyl)-3-E-[2-(pyridin-2-yl)ethenyl]-1H-indazole]
IC50 (Homo sapiens, HUVEC, + albumin): > 100 nM
